Test results from paper PMC10641831 (Journal of Medicinal Chemistry, 2023).
Where “and” joins values, the source holds several entries; their conditions need not be identical. Equal entries are not always repeated. Where two headings read alike, the source gives them in different places. Numbered stars: 1 amine (or outer) side, 2 acyl side, 3 side chain; on linkers, the order of the positions; unused ones are H or OH. Bridge positions count the residues as written; N and C are the ends. Square brackets hold non-standard residues; d marks the D form. Peptide text beside a SMILES is read from it. AMPB(E) = O=C(c1ccc(/N=N/c2ccc(CN[*:1])cc2)cc1)[*:2]; X1 = O=C([C@H](Cc1ccc(/N=N/c2ccccc2)cc1)N[*:1])[*:2]; X2 = O=C(c1ccc(/N=N\c2ccc(CN[*:1])cc2)cc1)[*:2]

Legend:
hV1aR = target: T1, hV1aR (Homo sapiens, UniProt P37288); experiment: IP-One accumulation assay, agonist function, HEK293 cells expressing hV1aR; format: cell-based; settings: IP-One, stable HEK293 hV1aR; μM; read-out: V1aR EC50
T1 construct: expressed in transfected cells

hV1bR = target: T2, hV1bR (Homo sapiens, UniProt P47901); experiment: IP-One accumulation assay, agonist function, HEK293 cells expressing hV1bR; format: cell-based; settings: for Emax: HEK293, relative to the effect of VP, read-out: V1bR Emax ± SEM; for V1bR E/Z ratio EC50: ratio of EC50 of E- and Z-isomer
T2 construct: expressed in transfected cells
T2 sequence (P47901 1-424): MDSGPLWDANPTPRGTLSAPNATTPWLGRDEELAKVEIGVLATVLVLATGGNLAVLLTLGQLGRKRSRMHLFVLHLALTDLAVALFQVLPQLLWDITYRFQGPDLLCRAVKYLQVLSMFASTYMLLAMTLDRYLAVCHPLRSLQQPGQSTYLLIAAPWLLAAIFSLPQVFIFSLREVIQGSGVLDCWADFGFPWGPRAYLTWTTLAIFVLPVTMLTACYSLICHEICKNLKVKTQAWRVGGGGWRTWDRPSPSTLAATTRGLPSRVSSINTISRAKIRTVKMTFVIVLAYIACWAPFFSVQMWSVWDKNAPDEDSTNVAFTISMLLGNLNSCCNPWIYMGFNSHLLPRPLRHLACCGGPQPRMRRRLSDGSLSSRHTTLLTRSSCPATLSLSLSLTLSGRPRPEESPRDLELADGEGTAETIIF

hOTR = target: T3, hOTR (Homo sapiens, UniProt P30559); experiment: IP-One accumulation assay, agonist function, HEK293 cells expressing hOTR; format: cell-based; settings: for potency difference between the E and Z isomers at OTR: EC50 E vs Z; for agonist character at OTR: IP-One assay
T3 construct: expressed in transfected cells
T3 sequence (P30559 1-389): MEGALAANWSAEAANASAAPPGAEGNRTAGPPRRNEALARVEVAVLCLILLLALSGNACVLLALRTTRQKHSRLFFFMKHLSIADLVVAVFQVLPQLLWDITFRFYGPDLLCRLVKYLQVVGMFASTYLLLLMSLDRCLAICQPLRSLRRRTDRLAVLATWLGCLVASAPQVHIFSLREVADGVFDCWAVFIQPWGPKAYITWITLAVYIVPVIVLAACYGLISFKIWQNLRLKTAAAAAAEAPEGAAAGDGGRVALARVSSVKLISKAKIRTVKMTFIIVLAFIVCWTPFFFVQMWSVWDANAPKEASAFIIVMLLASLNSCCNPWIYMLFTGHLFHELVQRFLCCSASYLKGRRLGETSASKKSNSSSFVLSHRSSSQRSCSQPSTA

[1] = Thermal half-life of the Z-isomer (UV/vis, 96-well plate); format: physicochemical; settings: for t1/2 (thermal half-life, Figure S50): 50 µM in HEPES buffer + 0.25% DMSO, pre-irradiated with 340 nm; for t1/2 (thermal half-life Z to E): preirradiation with 340 nm
Source text: All photoprobes were investigated regarding their photophysical properties in aqueous buffer (pH 7.5), mimicking the conditions of the biological functional assays. […] Upon irradiation with 340 nm light for 10 s and monitoring via UV/vis spectroscopy, all compounds could be switched to the Z-isomer, reaching the photostationary state (PSS). Compounds 8–17 containing azobenzene could be switched back to the E-isomer by irradiation at 420 nm for 60 s. Compounds 18 and 19 containing arylazopyrazole could be reverted to the E isomer by using 528 nm light. […] The PSS, when switched to the Z-isomer, was consistently good, with a PSS of 81–95%. […] The thermal half-lives of 10 and 12 were also measured at 37 °C, representing the temperature during the biological assays. As expected, the thermal half-lives decreased, however, the ratio of E and Z isomers remained stable during the incubation period of the biological assays (1 h).
Starting materials and commercial reagents were purchased from Acros, Alfa Aesar, Fisher, Fluka, Fluorochem, Merck (Sigma-Aldrich), TCI and VWR and were used without further purification. Solvents were used in p.a. quality or dried according to common procedures if necessary. All reactions with oxygen- or moisture-sensitive reagents were carried out in glassware that was dried before use by heating under vacuum. Dry nitrogen or argon was used for an inert gas atmosphere. All NMR spectra were measured at room temperature (20 °C) using a Bruker Avance 400 (400 MHz for ^1H and 101 MHz for ^13C) or a Bruker Avance 600 (600 MHz for ^1H and 151 MHz for ^13C) NMR spectrometer. All chemical shifts are reported in δ-scale as parts per million [ppm] (multiplicity, coupling constant J, number of protons) relative to the solvent residual peaks. Coupling constants J are given in hertz [Hz]. Abbreviations used for signal multiplicity: ^1H NMR: s = singlet, d = doublet, dd = doublet of doublets, ddd = doublet of doublets of doublets, dt = doublet of triplets, t = triplet, td = triplet of doublets, q = quartet, and m = multiplet. All mass spectra were recorded on an Agilent Q-TOF 6540 UHD, Finnigan MAT SSQ 710 A, Jeol AccuTOF GCX or ThermoQuest Finnigan TSQ 7000 spectrometer. Absorption spectra were recorded on an UV/vis Agilent Cary 50 spectrometer. Thermal half-lives were measured on a 96-well plate in a Thermo Scientific Multiskan Spectrum. Analytical TLC was performed on silica gel-coated alumina plates (MN precoated TLC-sheets ALUGRAM Xtra SIL G/UV254). Visualization was done using UV light (254 or 366 nm) or staining with ninhydrin solution. Column chromatography was performed on a Biotage Isolera One automated flash purification system with a UV/vis detector. Analytical RP-HPLC was carried out on an Agilent 1220 Infinity LC System (column: P/No 00F-4251-B0, Phenomenex Luna 3 μm C18(2) 100 Å, LC column 150 mm × 2.0 mm). Purification by preparative HPLC was conducted on a preparative HPLC Agilent 1260 Infinity LC System [column: P/No 00G-4253-P0-AX, Phenomenex Luna 10 μm C18(2) 100 Å, LC column 250 mm × 21.2 mm]. The eluent systems were used as specified. After the purification process, solvents were removed by lyophilization. Switching experiments were done with a 340 nm LED (SSC VIOSYS CUD4AF1B, 500 mA, 55 mW), 420 nm LED (ILH-XC01-S410-SC211-WIR200, 800 mA, 440 mW), and 528 nm LED (OSRAM Oslon SSL 80 green, 500 mA, 34 mW). Purity of all photoprobes was >95% as determined by analytical RP-HPLC at 220 nm in DMSO.
1.3.4. Thermal Half-lives
Thermal half-lives were measured in a 96-well plate in a Thermo Scientific Multiskan® Spectrum at 25 °C (and at 37 °C for compounds 10 and 12). The solutions (50 µM in HEPES buffer + 0.25% DMSO) were pre-irradiated with 340 nm. The absorption at 335 nm was measured every 3 h. The data was analyzed using Origin 2021.
0,7 1/2 ExpDec1 Fit of Sheet1 B
Modell ExpDec1 0,35 Modell ExpDec1
0,6 Gleichung y = A 1 *e xp (-x/t1 ) + y0 Gleichung y = A 1 *e xp (-x/t1 ) + y0 […]

[2] = Photostationary state by analytical C18-RP-HPLC; format: physicochemical; settings: for PSS (E → Z): irradiation with 340 nm, HEPES buffer; for PSS (Z → E): irradiation with 420 nm (8–17) or 528 nm (18, 19)
Description: All photoprobes were investigated regarding their photophysical properties in aqueous buffer (pH 7.5), mimicking the conditions of the biological functional assays.
1.3.2. Photostationary States
Photostationary states (PSS) were measured on analytical C18-RP-HPLC (flow: 0.3 mL/min, solvent A: H2O (0.05% TFA), solvent B: MeCN). To determine the PSS of the photoswitches, the samples (in 0.1 mM in HEPES buffer + 1% DMSO, pH 7.5) were irradiated first with 340 nm to get the Z-isomer. Afterwards, the sample was irradiated with 420 nm (8-17) or 528 nm (18 and 19), respectively, to get back to the E-isomer. The samples were measured at the isosbestic points.

[3] = IP-One, stable HEK293 hV1bR, read-out: V1bR EC50 ± SEM
[4] = supplementary CSV, read-out: activity E-isomer OTR
[5] = supplementary CSV, read-out: activity Z-isomer OTR

T1 sequence (P37288 whole entry): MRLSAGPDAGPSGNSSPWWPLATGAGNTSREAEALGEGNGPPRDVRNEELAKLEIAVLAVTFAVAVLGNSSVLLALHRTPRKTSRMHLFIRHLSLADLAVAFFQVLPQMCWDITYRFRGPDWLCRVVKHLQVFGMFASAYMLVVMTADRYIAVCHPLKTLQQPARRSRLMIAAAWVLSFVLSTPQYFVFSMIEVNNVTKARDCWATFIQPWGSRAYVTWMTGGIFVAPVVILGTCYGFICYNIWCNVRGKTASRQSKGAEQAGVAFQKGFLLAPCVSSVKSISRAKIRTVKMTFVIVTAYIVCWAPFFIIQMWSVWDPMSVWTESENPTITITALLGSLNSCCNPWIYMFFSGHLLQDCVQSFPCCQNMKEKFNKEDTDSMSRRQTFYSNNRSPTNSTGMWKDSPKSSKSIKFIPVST

| SMILES | potency difference between the E and Z isomers at OTR (hOTR) | agonist character at OTR (hOTR) | EC50 (hOTR; [4]) [nM] | EC50 (hOTR; [5]) [nM] | t1/2 (thermal half-life, Figure S50) ([1]; 25 °C) [days] | t1/2 (thermal half-life Z to E) ([1]; 25 °C, HEPES buffer pH 7.4) [days] | PSS (E → Z) [2] [%] | further results |
| --- | --- | --- | --- | --- | --- | --- | --- | --- |
| N=C(N)NCCC[C@H](NC(=O)c1ccc(/N=N/c2ccc(CNC(=O)[C@@H]3CSSC[C@H](N)C(=O)N[C@@H](Cc4ccc(O)cc4)C(=O)N[C@@H](Cc4ccccc4)C(=O)N[C@@H](CCC(N)=O)C(=O)N[C@@H](CC(N)=O)C(=O)N3)cc2)cc1)C(=O)NCC(N)=O [E-14] (H-CYFQNC[AMPB(E)]RG-NH2; disulfide 1-6) | – | – | – | – | – | – | – | EC50 (hV1aR): > 10 µM; Emax (hV1bR): 48 ± 2%; EC50 (hV1bR; [3]): 4970 ± 754 nM; V1bR E/Z ratio EC50 (hV1bR): 2.1 |
| CC[C@H](C)[C@@H]1NC(=O)[C@H](Cc2ccc(O)cc2)NC(=O)[C@@H](N)CSSC[C@@H](C(=O)NCc2ccc(/N=N/c3ccc(C(=O)NCC(N)=O)cc3)cc2)NC(=O)[C@H](CC(N)=O)NC(=O)[C@H](CCC(N)=O)NC1=O [compound 10, [AzbL^7/8]-OT] (H-CYIQNC[AMPB(E)]G-NH2; disulfide 1-6) | 3.1 fold and 3 fold | potent agonists | 94.6 ± 19 | 30.7 ± 4 | 1.7 | 1.7 | 86 | t1/2 (thermal half-life, Figure S50) ([1]; 37 °C): 1.0 days; t1/2 (thermal half-life Z to E) ([1]; 37 °C): 1.0 days; PSS (Z → E) [2]: 81% |
| CC[C@H](C)[C@@H]1NC(=O)[C@H](Cc2ccc(/N=N/c3ccccc3)cc2)NC(=O)[C@@H](N)CSSC[C@@H](C(=O)N2CCC[C@H]2C(=O)N[C@@H](CC(C)C)C(=O)NCC(N)=O)NC(=O)[C@H](CC(N)=O)NC(=O)[C@H](CCC(N)=O)NC1=O [compound 8, [AzbS^2]-OT] (H-C[X1]IQNCPLG-NH2; disulfide 1-6) | – | partial agonism | 4500 ± 1010 | 3500 ± 1890 | 5.5 | 5.5 | 94 | decrease in potency compared to OT at OTR (hOTR; EC50 vs OT): > 1400 fold; Emax (hOTR; HEK293, relative to the effect of OT, read-out: OTR Emax ± SEM): 35 to 45%; EC50 (hOTR; IP-One, both isomers, read-out: EC50 at OTR): 3000 to 4000 nM |
| N=C(N)NCCC[C@H](NC(=O)c1ccc(/N=N\c2ccc(CNC(=O)[C@@H]3CSSC[C@H](N)C(=O)N[C@@H](Cc4ccc(O)cc4)C(=O)N[C@@H](Cc4ccccc4)C(=O)N[C@@H](CCC(N)=O)C(=O)N[C@@H](CC(N)=O)C(=O)N3)cc2)cc1)C(=O)NCC(N)=O [Z-14] (H-CYFQNC[X2]RG-NH2; disulfide 1-6) | – | – | – | – | – | – | – | EC50 (hV1aR): > 10 µM; Emax (hV1bR): 67 ± 2%; EC50 (hV1bR; [3]): 2370 ± 607 nM; V1bR E/Z ratio EC50 (hV1bR): 2.1 |
| CC[C@H](C)[C@@H]1NC(=O)[C@H](Cc2ccc(O)cc2)NC(=O)[C@@H](N)CSSC[C@@H](C(=O)N[C@@H](Cc2ccc(/N=N/c3ccccc3)cc2)C(=O)N[C@@H](CC(C)C)C(=O)NCC(N)=O)NC(=O)[C@H](CC(N)=O)NC(=O)[C@H](CCC(N)=O)NC1=O [compound 9, [AzbS^7]-OT] (H-CYIQNC[X1]LG-NH2; disulfide 1-6) | 2.5 fold | full agonist | 346 ± 30 | 136 ± 6 | 3 | 3.0 | 93 | – |
| NC(=O)CC[C@@H]1NC(=O)[C@H](Cc2ccccc2)NC(=O)[C@H](Cc2ccc(O)cc2)NC(=O)[C@@H](N)CSSC[C@@H](C(=O)NCc2ccc(/N=N/c3ccc(C(=O)N[C@@H](CCCN=C(N)N)C(=O)NCC(N)=O)cc3)cc2)NC(=O)[C@H](CC(N)=O)NC1=O [compound 14, [AzbL^7]-VP] (H-CYFQNC[AMPB(E)]RG-NH2; disulfide 1-6) | – | – | – | – | – | – | – | EC50 (hV1bR; supplementary CSV, read-out: activity Z-isomer V1bR): 2370 ± 607 nM |
| CC[C@H](C)[C@@H]1NC(=O)[C@H](Cc2ccc(O)cc2)NC(=O)[C@@H](N)CSSC[C@@H](C(=O)NCc2ccc(/N=N/c3ccc(C(=O)N[C@@H](CC(C)C)C(=O)NCC(N)=O)cc3)cc2)NC(=O)[C@H](CC(N)=O)NC(=O)[C@H](CCC(N)=O)NC1=O [compound 11, [AzbL^7]-OT] (H-CYIQNC[AMPB(E)]LG-NH2; disulfide 1-6) | 2 fold | potent agonists | 263 ± 21 | 134 ± 17 | 1.2 | 1.2 | 87 | PSS (Z → E) [2]: 85% |
